Test results published in patent publication US11154564B2, “Composition for cough” (Aboca S.p.A. Società Agricola, priority 2017, dated 2021).

Assays:
[1] = Stability of the composition (total tannins as pyrogallol, EP 9.2, 2.8.14); format: physicochemical; conditions: fluid form (syrup), 40° C. and 75% of relative humidity, six months
Procedure: The stability of the composition of the invention in fluid form (syrup, as per examples above, at 2) with regard to tannins was assessed by measuring the content of total tannins, expressed as pyrogallol, by means of spectrophotometric method described in European Pharmacopoeia (EP 9.2, 2.8.14) for agrimony.

human keratocytes = experiment: Scavenger-type anti-oxidizing activity assay (DCA probe, H2O2 oxidative stress); format: cell-based; conditions: 0.05 mg/ml
Source text: Assessment of anti-oxidizing activity of the sample on human cells exposed to chemical-type progressive oxidative stress. The assessment of anti-oxidizing action is obtained from quantification of free radical formation in cells exposed to the sample and to oxidative stress. The method applied is based on the use of the fluorimetric probe 2,7 dichlorofluorescein acetate-DCA-: this probe penetrates into cells, binds to cell membrane proteins and macromolecules. In this form, the probe is not fluorescent, only becoming fluorescent when oxidized by free radicals. Cells pretreated with DCA are exposed to the various dilutions of the sample and hydrogen peroxide. […] Starting from this mother solution, the first dilution was prepared at a concentration of 0.5 mg/ml in saline; therefrom, by applying a 1:2 dilution factor, the other four dilutions were obtained. Positive Control: cells exposed to the 500 μM H2O2 solution. Internal Control: cells exposed to an ascorbic acid solution (0.05 mg/ml). Negative Control: cells exposed to the inoculation medium. The assay was performed on a simple cell model consisting of a monolayer of stabilized human keratocytes (cells were purchased from IZSLER and are guaranteed as free from any viral/bacterial contamination and/or from mycoplasma). […] The same procedure was carried out to obtain the same five dilutions in a 500 μM H2O2 solution in saline. 150 μl per each dilution (in saline and in H2O2) were distributed into four wells on two different plates. Cultured cells were enzymatically detached from the growth medium and counted with an electronic cell counter (Scepter); a cell suspension was prepared (in inoculation medium) at the density of 300,000 cells/ml, which were then distributed into 96-well plates: 100 μl per well, obtaining a seeding density of 30,000 cells per well. Lastly, the plates were placed back to culture in an incubator at 37° C. and 5% CO2-enriched humid atmosphere for the subsequent 24 hours. The inoculation medium was removed, cells were washed once with PBS, then PBS was discarded and 150 μl DCA (4 μM) was distributed in both plates. Then, the plates were placed back in incubator at 37° C. and 5% CO2-enriched atmosphere for 15 minutes. At the end of the DCA incubation period, the solution was removed, and cells were washed once with PBS, then 150 μl of the above-described dilutions of the sample and of the controls were distributed in the plates. Then, free radical formation was measured from T0 (right after inoculation into the two plates) every 20 minutes, up to 100 minutes (5 measurements) with a fluorimeter. At the end of the measurements, after the 100 minutes, the inoculate of both plates was removed and Neutral Red Uptake vitality assay was performed. F.U.: fluorescence unit F.U. positive control: average of F.U. emitted from cells exposed to the H2O2 solution (maximum production of free radicals) F.U. negative control: average of F.U. emitted from cells not exposed to oxidative stress At each time interval of exposure ([NT]5) there were carried out: the average of F.U. emitted from cells exposed to the sample, to vitamin C without oxidative stress, is subtracted from the average of F.U. emitted from cells exposed to the sample, to vitamin C and oxidative stress. In other words, the average values of fluorescence emitted from the non-stressed plate were subtracted from the average values of fluorescence emitted from the stressed plate. […]: cells exposed to the sole sample F.U. Controlpos: cells exposed to the sole oxidative stress F.U. Controlneg: cells exposed to saline without oxidative stress

- stability in fluid form ([1]; listed as Vitamin C): did not exhibit stability beyond T0
- stability in fluid form ([1]; listed as vitamin C): markedly unstable
SMILES: O=C1O[C@H]([C@@H](O)CO)C(O)=C1O [Vit. C, Ascorbic acid]
- % PROTECTION FROM FREE RADICALS (human keratocytes; 20 MIN, 500 μM H2O2): 57%
- FREE RADICAL DEVELOPMENT (human keratocytes; 20 MIN, 500 μM H2O2): 5993
- % PROTECTION FROM FREE RADICALS (human keratocytes; 40 MIN, 500 μM H2O2): 60%
- FREE RADICAL DEVELOPMENT (human keratocytes; 40 MIN, 500 μM H2O2): 5721
- % PROTECTION FROM FREE RADICALS (human keratocytes; 60 MIN, 500 μM H2O2): 60%
- FREE RADICAL DEVELOPMENT (human keratocytes; 60 MIN, 500 μM H2O2): 5240
- % PROTECTION FROM FREE RADICALS (human keratocytes; 80 MIN, 500 μM H2O2): 63%
- FREE RADICAL DEVELOPMENT (human keratocytes; 80 MIN, 500 μM H2O2): 4802
- % PROTECTION FROM FREE RADICALS (human keratocytes; 100 MIN, 500 μM H2O2): 61%
- FREE RADICAL DEVELOPMENT (human keratocytes; 100 MIN, 500 μM H2O2): 4937
- % PROTECTION FROM FREE RADICALS (human keratocytes; T0, 500 μM H2O2): 45%
- FREE RADICAL DEVELOPMENT (human keratocytes; T0, 500 μM H2O2): 5654
